Measured values: patent publication US20220127682A1, “SELECTION AND TREATMENT OF CANCER WITH COMBINATION THERAPIES” (Massachusetts Institute of Technology, priority 2020, published 2022)
Entries after “also recorded” stand apart in the source; their conditions may differ. Like-named read-outs stand apart in the source and are kept apart here.

Assays:
[1] = cited from earlier work
[2] = test system: panel of >50 other kinases; details: concentrations up to 10 μM; in vitro; cited from earlier work
[3] = test system: HCT116, NCI-H460, and taxane-resistant CXB1 colon carcinoma xenografts; details: mouse model; ~25 mg/kg/day; cited from earlier work
[4] = cited from earlier work; remark: listed apart in the source
[5] = advanced solid tumors; cited from earlier work
[6] = test system: C4-2 castrate resistant prostate cancer cells; assay: Cell viability (CellTiter-Glo, 72 h) of drug combinations vs Bliss expected; type: cell-based; details: for tumor cell killing of PLK inhibitor combined with abiraterone, vs expected additive: C4-2 CRPC cells, 72 hours, Bliss independence
xenograft tumor models = details: under proper dose scheduling; cited from earlier work
[7] = cited from earlier work; remark: listed apart in the source
[8] = test system: various human tumor cell lines; details: cited from earlier work
PLK1 = PLK1 (Homo sapiens, UniProt P53350); details: cited from earlier work
PLK1, sequence (P53350 whole entry): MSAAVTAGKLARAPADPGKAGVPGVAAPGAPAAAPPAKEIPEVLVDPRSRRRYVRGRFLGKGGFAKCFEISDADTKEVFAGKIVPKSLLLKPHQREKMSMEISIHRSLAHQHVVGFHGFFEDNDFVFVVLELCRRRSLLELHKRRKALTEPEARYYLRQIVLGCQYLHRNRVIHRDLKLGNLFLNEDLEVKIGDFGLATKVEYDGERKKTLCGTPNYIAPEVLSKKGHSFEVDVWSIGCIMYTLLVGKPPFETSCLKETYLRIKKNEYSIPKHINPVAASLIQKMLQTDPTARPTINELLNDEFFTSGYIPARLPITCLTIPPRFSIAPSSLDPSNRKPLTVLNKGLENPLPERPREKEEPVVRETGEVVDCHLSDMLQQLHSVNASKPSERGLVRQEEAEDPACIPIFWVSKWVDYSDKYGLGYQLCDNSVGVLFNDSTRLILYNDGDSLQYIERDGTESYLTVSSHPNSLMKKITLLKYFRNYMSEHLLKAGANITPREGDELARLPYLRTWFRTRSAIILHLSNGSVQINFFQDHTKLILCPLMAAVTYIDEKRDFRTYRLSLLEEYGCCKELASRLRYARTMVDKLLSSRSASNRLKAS

mouse xenograft models = details: 10 mg/kg and 20 mg/kg on days 1 and 28; cited from earlier work
[9] = doses of 24 to 48 mg/m^2 for 5 consecutive days every 4 weeks; cited from earlier work
[10] = cited from earlier work; remark: listed apart in the source
cell mitosis = details: read-out: EC50, inhibition of cell mitosis; cited from earlier work
[11] = preclinical, cited from earlier work
[12] = test system: Cdc25C-T96 phosphorylation; details: read-out: EC50, Cdc25C-T96 phosphorylation; cited from earlier work
[13] = target: several tyrosine kinases and cyclin-dependent kinase 1 (Cdk1); details: cited from earlier work
BT20 cells xenograft = details: 200 mg/kg; cited from earlier work
[14] = cited from earlier work; remark: listed apart in the source
[15] = test system: Bel-7402, MCF-7, and MIA-PaCa cells xenografts; details: 250 mg/kg; Bel-7402, MCF-7, MIA-PaCa xenografts; cited from earlier work
[16] = test system: breast cancer cell MDA-MB-468; details: read-out: anti-proliferative IC50; cited from earlier work
skin cancer cell A375 = details: read-out: anti-proliferative IC50; cited from earlier work
[17] = test system: colorectal cancer cell HT-29; details: read-out: anti-proliferative IC50; cited from earlier work
prostate cancer cell PC3 = details: read-out: anti-proliferative IC50; cited from earlier work
[18] = test system: lung cancer cell line H82; details: read-out: anti-proliferative IC50; cited from earlier work
[19] = test system: HT-29 human colorectal tumors; details: HT-29 tumors in nude mouse, cited from earlier work
[20] = test system: several tumor cell lines, including those that express MDR1; details: including lines that express multidrug-resistant protein 1 (MDR1); cited from earlier work
C4-2 CRPC cells = assay: Identification of mitotic (pHH3) and apoptotic (cleaved caspase-3) cells by flow cytometry; type: cell-based; details: drug added to onvansertib
Procedure: C4-2 CRPC cells were plated in 6-well plates at a density of 300,000 cells per well and a total volume of 3 mls. The following day the indicated drugs were diluted in the appropriate growth media while maintaining a constant final concentration of DMSO and added to the wells. After the indicated amount of time cells were harvested by trypsinization. The media, trypsin and PBS wash were collected together to avoid loss of loosely attached or detached cells. Cells were fixed in 4% formaldehyde in PBS for 15 minutes, washed with PBS containing 1% bovine serum albumin (PBS-BSA), and then stored in methanol at −20° C. overnight. Cells were then washed twice in PBS-BSA 0.1% Tween-20, incubated with primary antibodies overnight at 4° C., washed with PBS-BSA 0.1% Tween-20 and incubated for 1 hour with fluorescent-dye conjugated secondary antibodies (diluted 1:200, Alexa Fluor, Molecular Probes) at room temperature for 1 hour. Primary antibodies included anti-phospho-serine 10 histone H3 (clone 3H10, Millipore) and anti-active caspase-3 (clone C92-605, BD Pharmingen). The fixed cells were then washed with PBS-BSA 0.1% Tween-20 and resuspended in PBS containing 1 μg/ml 4,6-diamidino-2-phenylindole (DAPI, Molecular Probes) to stain DNA and analyzed using a BD™ LSRII flow cytometer (Becton Dickinson) and the FlowJo™ software package.

[21] = test system: C4-2 CRPC cells expressing histone H2B-mCherry and mEmerald-tubulin; assay: Time-lapse live-cell microscopy and spindle orientation analysis; type: cell-based; details: for frequency of division not parallel to the growth surface: live-cell microscopy; for spindle orientation / spindle rotation during mitosis: net angular displacement and cumulative angular distance
Procedure: C4-2 CRPC cells expressing histone H2B-mCherry and mEmerald-tubulin. were plated in 12-well plates in phenol red free media, the following day drugs were added as indicated and the cells were imaged on a EVOS™ FL Auto Cell Imaging System equipped with an onstage incubator to maintain 37° C., adequate humidity, and 5% CO2. Images were acquired at 15-minute intervals for 72 hours using a 20× objective lens. For the rotation analysis, the angle of the spindles major axis was tracked starting from when it was first apparent, prometaphase, until telophase. The net angular displacement is the total change in angle of the spindle during mitosis from start until finish and is the absolute value of the sum of all stepwise rotations. The cumulative angular distance is the total amount of rotation regardless of direction that occurred during mitosis and is the sum of the absolute value of all rotations.

[22] = test system: large number of cell lines, solid and hematological tumors; details: cited from earlier work
[23] = test system: tumor cells and normal cells; details: cited from earlier work
[24] = test system: more than 90 cell lines (multiple cancer types); assay: Combinatorial drug screening of more than 90 cell lines for more than additive effect; type: cell-based; details: onvansertib and abiraterone; more than 90 cell lines screened; data not shown
[25] = test system: OAW28 ovarian cancer cells; assay: Cell viability (CellTiter-Glo, 72 h) of drug combinations vs Bliss expected; type: cell-based; details: onvansertib 15 nM plus abiraterone
[26] = test system: Panc 10.05 pancreatic cancer cells; assay: as above; type: cell-based; details: onvansertib 33.3 nM plus abiraterone
[27] = test system: OCI-AML-3 acute myeloid leukemia cells; assay: as above; type: cell-based; details: onvansertib 22.2 nM plus abiraterone
[28] = test system: PSN-1 pancreatic cancer cells; assay: as above; type: cell-based; details: onvansertib 22.2 nM plus abiraterone
[29] = test system: MV-4-11 acute myeloid leukemia cells; assay: as above; type: cell-based; details: onvansertib 22.2 nM plus abiraterone
[30] = test system: LNCaP androgen-dependent prostate cancer cells; assay: as above; type: cell-based; details: Bliss independence

SMILES: CC(=O)O[C@H]1CC[C@@]2(C)C(=CC[C@@H]3[C@@H]2CC[C@]2(C)C(c4cccnc4)=CC[C@@H]32)C1 [Abiraterone acetate, abiraterone acetate]
- solubility in water [1]: practically insoluble

SMILES: CC[C@@H]1C(=O)N(C)c2cnc(Nc3ccc(C(=O)N[C@H]4CC[C@H](N5CCN(CC6CC6)CC5)CC4)cc3OC)nc2N1C(C)C [BI6727, volasertib]
- inhibitory activity against a panel of >50 other kinases [2]: no inhibitory activity
- growth of multiple human carcinoma xenografts [3]: significantly inhibits the growth
- recommended dose for further development ([4]; based on overall tolerability): 300 mg
- MTD ([4]; i.v. once every 3 weeks, advanced solid tumors): 400 mg
- DLTs ([4]; i.v. once every 3 weeks, dose escalation 12-450 mg): neutropenia, thrombocytopenia, and febrile neutropenia
- MTD in combination with afatinib [5]: 300 mg
- tumor cell killing of PLK inhibitor combined with abiraterone, vs expected additive [6]: more than additive

SMILES: C[C@@H](Oc1cc(-n2cnc3ccc(CN4CCN(C)CC4)cc32)sc1C(N)=O)c1ccccc1C(F)(F)F [GSK461364]
- effect in xenograft tumor models (xenograft tumor models): tumor regression
- DLTs ([7]; i.v., schedules A and B, 28-day cycle): grade 4 neutropenia, sepsis, and pulmonary embolism
- incidence of venous thrombotic emboli (VTE) ([7]; in vivo): 20%
- final recommended phase II dose ([7]; intravenously, schedule A (days 1, 8, and 15)): 225 mg
- tumor cell killing of PLK inhibitor combined with abiraterone, vs expected additive [6]: more than additive

SMILES: COc1ccc(S(=O)(=O)Nc2ccccc2/C=C/c2cc[n+]([O-])cc2)cc1 [HMN-176]
- cytotoxicity toward various human tumor cell lines [8]: potent cytotoxicity
- enzymatic activity of PLK1 (PLK1; affects subcellular distribution of PLK1 instead): does not directly inhibit
- antitumor activity in mouse xenograft models (mouse xenograft models): potent antitumor activity

SMILES: COc1ccc(S(=O)(=O)N(C(C)=O)c2ccccc2/C=C/c2cc[n+]([O-])cc2)cc1 [HMN-214]
- DLTs [9]: prolonged neutropenia, febrile neutropenia, neutropenic sepsis, electrolyte disturbance, neuropathy, and myalgia
- dose-limiting toxicities ([10]; at 9.9 mg/m^2/d): severe myalgia/bone pain syndrome and hyperglycemia
- maximum tolerated dose and recommended dose ([10]; continuous 21-day dosing schedule every 28 days): 8.0 mg/m^2/d

SMILES: Cc1ncc(CCCN(C)C)cc1Nc1ncc2c(n1)-c1ccc(C(F)(F)F)cc1NC(=S)C2 [MLN0905]
- EC50 (cell mitosis): 9 nM
- maximum tolerated dose ([11]; QD (daily) schedule): 6.25 mg/kg
- maximum tolerated dose ([11]; QD×3/wk (3-days on/4-days off) schedule): 14.5 mg/kg
- EC50 [12]: 29 nM

SMILES: COc1cc(OC)c(/C=C/S(=O)(=O)Cc2ccc(OC)c(NCC(=O)[O-])c2)c(OC)c1.[Na+] [ON 01910, rigosertib]
- IC50 [13]: 18 to 260 nM
- tumor growth (BT20 cells xenograft): inhibition of tumor growth
- DLT ([14]; at the MTD): Grade 3 abdominal pain
- MTD ([14]; i.v., days 1, 4, 8, 11, 15, and 18 in 28-day cycles): 3,120 mg
- tumor growth [15]: inhibited tumor growth

SMILES: COc1cc(C(=O)NC2CCN(C)CC2)ccc1NC1NCC2C(N1)N(C1CCCC1)CC(F)(F)C(=O)N2C (stereo not shown) [RO3280]
- IC50 [16]: 19 nM
- IC50 (skin cancer cell A375): 70 nM
- IC50 [17]: 10 nM
- IC50 (prostate cancer cell PC3): 12 nM
- IC50 [18]: 5 nM
- IC50 (PLK1): 3 nM
- antitumor activity ([19]; dosed more frequently): complete tumor regression
- tumor growth inhibition ([19]; once weekly at 40 mg/kg): 72%

SMILES: COc1cc(C(=O)NC2CCN(C)CC2)c(F)cc1Nc1ncc2c(n1)N(C1CCCC1)CC(F)(F)C(=O)N2C [TAK-960]
- activity in tumor cell lines [20]: shown activity

SMILES: C[C@]12CC[C@H](O)CC1=CC[C@@H]1[C@@H]2CC[C@]2(C)C(c3cccnc3)=CC[C@@H]12 [abiraterone]
- effect on apoptotic cell death (cleaved Caspase-3 positive cells) after onvansertib (C4-2 CRPC cells): exacerbates subsequent apoptotic cell death
- effect on mitotic arrest (pHH3 positive cells) caused by PLK1 inhibitor onvansertib (C4-2 CRPC cells): dramatically increased the frequency of mitotic arrest; also recorded: enhances the mitotic arrest
- frequency of division not parallel to the growth surface [21]: increased
- spindle orientation / spindle rotation during mitosis [21]: disrupted proper spindle orientation

SMILES: CNC(=O)c1ccc(N2C(=S)N(c3ccc(C#N)c(C(F)(F)F)c3)C(=O)C2(C)C)cc1F [enzalutamide]
- effect on mitotic arrest (pHH3 positive cells) caused by PLK1 inhibitor onvansertib (C4-2 CRPC cells): does not enhance the mitotic arrest
- frequency of division not parallel to the growth surface [21]: did not result in these phenotypes
- spindle orientation / spindle rotation during mitosis [21]: did not result in these phenotypes
- more than additive effect with PLK1 inhibitors ([6]; C4-2 cells, enzalutamide combined with onvansertib or BI2536): not observed

SMILES: CN1CCN(c2ccc(OC(F)(F)F)c(Nc3ncc4c(n3)-c3c(c(C(N)=O)nn3CCO)CC4)c2)CC1 [onvansertib]
- activity in proliferation assays [22]: low nanomolar activity
- sensitivity of tumor cells to induced cell death relative to normal cells [23]: 10 fold
- cell lines in which the more than additive effect was detected [24]: approximately 30%
- response to the combination of abiraterone and PLK1 inhibitor vs expected additive [25]: do not have a greater than additive response
- response to the combination of abiraterone and PLK1 inhibitor vs expected additive [26]: do not have a greater than additive response
- response to the combination of abiraterone and PLK1 inhibitor vs expected additive [27]: do not have a greater than additive response
- response to the combination of abiraterone and PLK1 inhibitor vs expected additive [28]: greater than additive response
- response to the combination of abiraterone and PLK1 inhibitor vs expected additive [29]: greater than additive response
- tumor cell killing of PLK inhibitor combined with abiraterone, vs expected additive [6]: more than additive
- viability effect of PLK1 inhibitor combined with abiraterone, vs expected additive [30]: No greater than additive effect
